In publication PMC9230136 (Pharmaceutics, 2022):
Where two headings read alike, the source gives them in different places. Each block holds one molecule with its values, some of them ahead of it.

Legend:
HeLa [1] = test: Antiproliferative assay (resazurin, 72 h); format: cell-based, human
In short: (§1)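 HT-29 grown in RPMI-1640, A549, HeLa and MDA-MB-231 in DMEM, both with 10% FBS. Seeded cells treated after 24 h with 5-fold serial dilutions from 10 μM, in triplicate, for 72 h at 37 °C. Viability read by resazurin fluorescence (ex 535/em 600 nm) after 3–4 h.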

Jurkat = test: Antiproliferative assay (resazurin, 72 h); format: cell-based, human
In short: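 Jurkat T-cell leukemia cells, grown in RPMI-1640 containing 10% fetal bovine serum, 115 units/mL penicillin G and 115 μg/mL streptomycin, were plated in 96-well plates. After 24 h they received serial 5-fold dilutions of test compounds starting at 10 μM, in triplicate, and were kept 72 h at 37 °C in 5% CO2.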

MDA-MB-231 = test: Antiproliferative assay (resazurin, 72 h); format: cell-based, human; conditions: mean ± SE, 72 h
In short: as §1

[2] = system: A549, MDA-MB-231, HeLa, HT-29 and Jurkat cancer cell lines; test: Antiproliferative activity over the panel of cancer cell lines; format: cell-based, human
Procedure: Colon adenocarcinoma (HT-29) and T-cell leukemia (Jurkat) cells were grown in RPMI-1640 medium (Gibco, Milano, Italy). Promyelocytic leukemia cells (HL-60), non-small cell lung carcinoma (A549), cervix carcinoma (HeLa) and breast adenocarcinoma (MDA-MB-231) cells were grown in DMEM medium (Gibco, Milano, Italy). Both media were supplemented with 115 units/mL of penicillin G (Gibco, Milano, Italy), 115 μg/mL of streptomycin (Invitrogen, Milano, Italy) and 10% fetal bovine serum (Invitrogen, Milano, Italy). All the cell lines used were purchased from the American Type Culture Collection (ATCC, Manassas, VA, USA). Stock solutions (10 mM) of the compounds were obtained by dissolving them in DMSO.
The cells were seeded in 96-well plates at the appropriate density for each cell line. After 24 h, the cells were treated by performing serial 5-fold dilutions of the tested compounds starting from a concentration of 10 μM. All experimental conditions were tested in triplicate for statistical analysis. The plates were incubated for 72 h at 37 °C in a humidified 5% CO2 atmosphere. At the end of the incubation period, 10 μL of 100 μg/mL resazurin solution was added to each well; then, the plate was re-incubated for 3–4 h. The fluorescence of the wells in each plate was monitored using a Spark 10 M spectrophotometer (Tecan Group Ltd., Mannedorf, Switzerland) with a 535 nm excitation wavelength and a 600 nm emission wavelength.

quiescent PBLs = test: Cytotoxicity in human PBLs, resting; format: cell-based; conditions: PBL not stimulated with PHA, 72 h, read-out: IC50 PBLresting
Text: (§2) Human PBLs were obtained from healthy donors by separation on a Lymphoprep^TM (Serumwerk Bernburg AG) gradient and were used for the evaluation of the cytotoxic potential of compounds under study in normal human cells. Buffy coats were obtained from the Blood Transfusion Service, Azienda Ospedaliera of Padova and provided at this institution for research purposes without identifier. The samples were not obtained specifically for this study, and for this reason ethical approval was not required. Informed consent was obtained from blood donors according to Italian law no. 219 (21 October 2005). Data were treated by the Blood Transfusion Service according to Italian law on personal data management “Codice in materia di protezione dati personali” (Testo Unico D.L. Giugno 30, 2003 196).
(§3) After extensive washing with saline solution (BioConcept, Hank’s Buffered Saline Solution), quiescent PBLs were resuspended (1.0 × 10^6 cells/mL) in RPMI-1640 medium supplemented with 10% fetal bovine serum. Cytotoxicity evaluations were conducted also in cultures of proliferating PBLs, stimulated with […] PHA (Irvine Scientific). Both resting and proliferating lymphocytes were seeded in 96-well plates and maintained overnight at 37 °C in a humidified 5% CO2 incubator. Serial (5-fold) dilutions of the tested compounds were added, and viability was determined 72 h later by the resazurin viability assay as described above.

PBL stimulated with PHA = test: Cytotoxicity in human PBLs stimulated with PHA; format: cell-based; conditions: 72 h, read-out: IC50 PBLPHA
Text: as §2, §3

Bovine brain tubulin [3] = test: Inhibition of tubulin polymerization; format: biochemical
Procedure: (§4) Bovine brain tubulin was purified as described previously. To evaluate the effects of the compounds on tubulin assembly in vitro [35], varying concentrations were preincubated with 10 μM tubulin in 0.8 M monosodium glutamate (pH 6.6) at 30 °C and the reaction mixtures then cooled to 0 °C. After addition of GTP, the mixtures were transferred to 0 °C cuvettes in Beckman Coulter (Brea, CA, USA) DU-7400/DU-7500 recording spectrophotometers equipped with electronic temperature controllers and warmed to 30 °C, and the assembly of tubulin was observed turbidimetrically. […] Inhibition of colchicine binding to tubulin was measured as described before, except that the reaction mixtures contained 0.5 μM tubulin and 5 μM each of [^3H]colchicine and test compound. Only one DEAE-cellulose filter was used per sample, and filtration was by gravity.

Bovine brain tubulin [4] = test: Inhibition of [3H]colchicine binding to tubulin; conditions: tubulin 0.5 µM, [3H]colchicine 5 µM, compound 5 µM
Procedure: as §4

Zebrafish embryos = test: Acute toxicity assessment in zebrafish embryos; format: in vivo, Danio rerio; conditions: 100 nM
Procedure: Zebrafish embryos at 72 h post fertilization (hpf) were selected for the acute toxicity assay since, at that time, morphogenesis and function of the primary organ systems are complete. Embryos at 72 hpf were assayed in a 12-well plate, 20 larvae/well for each experimental condition.
The zebrafish embryos were treated as described in the Biological Results and Discussion section using drug concentrations selected on the basis of in vitro experimental data. The drugs were added directly to the fish water from 10 mM stock solutions in DMSO of tested compounds. […] CA-4P was employed as the reference compound.
The experiment was carried out at a constant temperature (28.5 °C) in the dark, and at 24 and 48 h time points, zebrafish were subjected to visual observation and image acquisition under a stereomicroscope (Nikon SMZ745T; Nikon, Japan). The number of dead zebrafish embryos for each condition was recorded, and morphological defects were evaluated. The survival rate (%) after treatment was calculated.

[5] = set-up: method as in PMID 31459105; conditions: cited from earlier work
[6] = set-up: method as in PMID 31459105; conditions: cited from earlier work; remark: listed apart in the source
HeLa [7] = conditions: cited from earlier work
A549 [8] = conditions: read-out: IC50 A549; cited from earlier work
tubulin = conditions: cited from earlier work
A549 [9] = test: Antiproliferative assay (resazurin, 72 h); format: cell-based, human
In short: as §1

HT-29 = test: Antiproliferative assay (resazurin, 72 h); format: cell-based, human
In short: as §1

HeLa cells [10] = test: Cell cycle analysis (PI, flow cytometry); format: cell-based, human; conditions: 24 h; for cells arrested in the G2/M phase: 100 nM
Procedure: HeLa cells were seeded at 100,000 cells per well on 6-well tissue culture plates. After 24 h, cells were treated with different test compound concentrations or DMSO for another 24 h. Cells were then fixed and stained with propidium iodide (PI). The fluorescence intensity of 10,000 single-cell events was measured with a Beckman Coulter Cytomics FC500 instrument (Beckman Coulter Italia, Milano, Italy) and the data were analyzed with MultiCycle for Windows software from Phoenix Flow Systems (San Diego, CA, USA).

HeLa cells [11] = test: Apoptosis by annexin-V-FITC/PI flow cytometry; format: cell-based, human
Procedure: Surface exposure of phosphatidylserine on apoptotic cells was measured by flow cytometry with a Beckman Coulter Cytomics FC500 (Beckman Coulter Italia, Milano, Italy) by adding annexin-V conjugated to fluorescein isothiocyanate (FITC) to cells according to the manufacturer’s instructions (Annexin-V Fluos, Roche Diagnostic, Monza, Italy). Simultaneously, the cells were stained with PI. Excitation was set at 488 nm, and the emission filters were at 525 and 585 nm, respectively, for FITC and PI.

HeLa cells [12] = test: Mitochondrial membrane potential (JC-1); format: cell-based, human; conditions: Figure 8A representative plot; concentration not given
Procedure: (§5) The mitochondrial potential was evaluated in HeLa cells by flow cytometry using the cell membrane permeable cationic dye 5,5′,6,6′-tetrachloro-1,1′,3,3′-tetraethyl-imidacarbocyanine iodide (JC-1) (Molecular Probes) as described previously. The production of ROS was measured in HeLa cells by flow cytometry using 2′,7′-dichlorodihydrofluorescein diacetate (H2DCFDA) (Molecular Probes) as described previously.

HeLa cells [13] = test: ROS production (H2DCFDA); format: cell-based, human; conditions: 10, 50 or 100 nM; 24 h
Procedure: as §5

HeLa cells [14] = test: EdU cell proliferation assay; format: cell-based, human; conditions: 25 or 50 nM; 24 h
Procedure: HeLa cells were seeded in a 6-well plate and, after a 24 h incubation, were treated with the desired compounds as indicated in the Biological Results and Discussion section. Cells were re-incubated for one day and then labeled with EdU (10 μM) for 3 h under cell culture conditions. Cells were harvested by centrifugation before proceeding with the fixation step using 3.7% formaldehyde. Next, permeabilization with 0.5% Triton X-100 was performed. The reaction cocktail was prepared and added to each well (100 μL/well) following the manufacturer’s instructions (EdU-Click 488, base click, Sigma-Aldrich. Milano Italy), and the plate was incubated at room temperature for 30 min in the dark. Cells were washed 2 times with phosphate-buffered saline (PBS) before reading samples with a Beckman Coulter Cytomics FC500 instrument (λex/λem = 496/516 nm).

[15] = tubulin at 10 μM, read-out: Tubulin Assembly IC50 ± SD

Compound: COc1ccc(/C=C\c2cc(OC)c(OC)c(OC)c2)cc1O [CA-4, combretastatin A-4, reference compound]
IC50 (HeLa [1]; Homo sapiens, HeLa, Table 1, mean ± SE): 4 ± 1 nM
IC50 (Jurkat; Homo sapiens, Jurkat, Table 1, mean ± SE, 72 h): 1 ± 0.2 nM
IC50 (MDA-MB-231; Homo sapiens, MDA-MB-231, Table 1): 5 ± 2 nM
IC50 ([2]; Homo sapiens, against three of the five lines (not A549, HT-29), read-out: IC50's, range): 1 to 5 nM
IC50 (quiescent PBLs; Homo sapiens): > 10000 nM
IC50 (PBL stimulated with PHA; Homo sapiens): 18.6 ± 3.8 nM
Colchicine Binding % Inhibition ± SD (Bovine brain tubulin [4]): 97 ± 0.1%
lethality (Zebrafish embryos): 100%
Results (toxicity evaluation) (Zebrafish embryos; 72 hpf embryos): Toxic
aqueous solubility [5]: very poor aqueous solubility
biological half-life [6]: short biological half-life

Compound: COc1cc(-c2nc3nc(C)c(C(C)=O)c(-c4ccc([N+](=O)[O-])cc4)n3n2)cc(OC)c1OC [Compound 4]
IC50 (HeLa [7]): 750 nM
IC50 (A549 [8]): 1020 nM
inhibition of tubulin assembly (tubulin; at 10 μM): 40%

Compound: COc1ccc(-c2c(C(C)=O)c(C)nc3nc(-c4cc(OC)c(OC)c(OC)c4)nn23)cc1[N+](=O)[O-] [Compound 5]
IC50 (HeLa [7]): 10000 nM
IC50 (A549 [8]): 16000 nM
IC50 (tubulin; read-out: IC50 antitubulin activity): 9900 nM

IC50 (A549 [9]; Table 1, mean ± SE): 190 ± 20 nM
IC50 (HT-29): 142 nM
IC50 (HT-29; Table 1, mean ± SE, 72 h): 140 ± 11 nM
IC50 (HeLa [1]; Table 1, mean ± SE): 67 ± 7 nM
IC50 (Jurkat): > 2000 nM
IC50 (Jurkat; Table 1, mean ± SE, 72 h): 2720 ± 130 nM
IC50 (MDA-MB-231; Table 1): 91 ± 8 nM
IC50 ([2]; four of the five cell lines, read-out: IC50 values against four of the five cell lines): < 1000 nM
IC50 (Bovine brain tubulin [3]; [15]): 380 ± 60 nM
Colchicine Binding % Inhibition ± SD (Bovine brain tubulin [4]): 55 ± 3%
Compound: COc1cc(Nc2cc(C)nc3nc(NCCCc4ccccc4)nn23)cc(OC)c1OC [Compound 7ad]
IC50 (quiescent PBLs): > 10000 nM
IC50 (PBL stimulated with PHA): > 10000 nM
cells arrested in the G2/M phase (HeLa cells [10]): more than 70%
concentration at which G2/M arrest began (HeLa cells [10]): 25 nM
concentration from which apoptosis was induced (HeLa cells [11]): 50 nM
Monomers (%) (monomeric JC-1) (HeLa cells [12]): 33.4%
ROS production (HeLa cells [13]): significantly increased ROS production in a dose-dependent manner
EdU incorporation / cell proliferation (HeLa cells [14]): effective in reducing HeLa cell proliferation

IC50 (A549 [9]; Homo sapiens, A549, Table 2, mean ± SE): 81 ± 2 nM
IC50 (HT-29; Homo sapiens, HT-29, Table 2, mean ± SE, 72 h): 58 ± 10 nM
IC50 (HeLa [1]; Homo sapiens, HeLa, Table 2, mean ± SE): 35 nM
IC50 (Jurkat; Homo sapiens, Jurkat, Table 2, mean ± SE, 72 h): 230 ± 20 nM
IC50 (MDA-MB-231; Homo sapiens, MDA-MB-231, Table 2): 98 ± 20 nM
IC50 ([2]; Homo sapiens, mean over the five cancer cell lines, read-out: mean IC50 (antiproliferative activity)): 101 nM
IC50 (Bovine brain tubulin [3]; read-out: IC50 tubulin polymerization): 390 nM
IC50 (Bovine brain tubulin [3]; [15]): 520 ± 60 nM
Colchicine Binding % Inhibition ± SD (Bovine brain tubulin [4]): 87 ± 0.8%
melting point: 168 to 170 °C
Compound: Cc1cc(Nc2ccc(F)c(Cl)c2)n2nc(NCCCc3ccccc3)nc2n1 [Compound 8r, N^7-(3-Chloro-4-fluorophenyl)-5-methyl-N^2-(3-phenylpropyl)-[1,2,4]triazolo [1,5-a]pyrimidine-2,7-diamine]
IC50 (quiescent PBLs; Homo sapiens): > 10000 nM
IC50 (PBL stimulated with PHA; Homo sapiens): > 10000 nM
fold more potent than CA-4, tubulin polymerization (Bovine brain tubulin [3]): about 2 fold
cells arrested in the G2/M phase (HeLa cells [10]): more than 70%
concentration at which G2/M arrest began (HeLa cells [10]): 25 nM
concentration from which apoptosis was induced (HeLa cells [11]): 50 nM
Monomers (%) (monomeric JC-1) (HeLa cells [12]): 16.6%
ROS production (HeLa cells [13]): significantly increased ROS production in a dose-dependent manner
EdU incorporation / cell proliferation (HeLa cells [14]): effective in reducing HeLa cell proliferation
